# Entries after “also recorded” stand apart in the source; their conditions may differ. Ends that are not written are not given here.
# Assays:
# [1] = tested on: leukocyte recruitment into the inflamed airpouch; assay: Mouse IL-1β air-pouch inflammation model (leukocyte migration); type: in vivo; details: mouse air-pouch
# Experimental: FIG. 3A and FIG. 3B are a series of bar charts comparing the anti-inflammatory effects of three polypeptides (Pep57 (SEQ ID NO:12); Pep59 (SEQ ID NO:13) and Pep84 (SEQ ID NO:14)) of the present disclosure versus a vehicle-only control.
# FIG. 3A and FIG. 3B are a series of bar charts comparing the anti-inflammatory effects of three polypeptides (Pep57 (SEQ ID NO: 12); Pep59 (SEQ ID NO: 13) and Pep84 (SEQ ID NO: 14)) of the present disclosure versus a vehicle-only control. Mice received 200 μl i.v. of saline+DMSO or a dose of 50 μg per animal of one of the three Ac2-26 derived peptides, immediately before the local injection of mouse IL-1β into 6-day-old airpouches. The extent of cell migration was determined 4 h later, following airpouch washing and staining of migrated cells with Gr1 marker. […] Data are mean±SEM of 5 mice per group. *P<0.05 vs. vehicle group (one way ANOVA).
# reperfusion injury = assay: Myocardial ischemia/reperfusion injury, infarct size (LADCA occlusion); type: in vivo, C57/B16 mice; details: i.v. bolus at beginning of reperfusion; 25 min ischemia, 120 min reperfusion
# Experimental: (§1) Infarct size in C57/B16 mice (˜30 g body weight) following 25 min ischemia (occlusion of the left anterior descending coronary artery; [LADCA]) and 120 min reperfusion. Vehicle or UGP022 (SEQ ID NO:5) were administered i.v. (over 5 sec bolus) at beginning of reperfusion. Area at Risk was measured following re-occlusion and injection of Evans blue dye. Infarct size was determined following NBT staining of the Area at Risk. Results are mean±SEM of 4 mice per group; **P<0.01
# as §1, with “(LADCA occlusion)” for “(occlusion of the left anterior descending coronary artery; [LADCA])”, “Vehicle, UGP025” for “Vehicle or UGP022”, “NO:7) (5 μg) or UGP026 (SEQ ID NO:8) (5 μg)” for “NO:5)”
# PR3 = target: T1, PR3 (Homo sapiens, UniProt P24158); assay: In vitro degradation/digest in the presence of PR3; type: in vitro ADME
# T1 sequence (P24158 28-248 limits assumed): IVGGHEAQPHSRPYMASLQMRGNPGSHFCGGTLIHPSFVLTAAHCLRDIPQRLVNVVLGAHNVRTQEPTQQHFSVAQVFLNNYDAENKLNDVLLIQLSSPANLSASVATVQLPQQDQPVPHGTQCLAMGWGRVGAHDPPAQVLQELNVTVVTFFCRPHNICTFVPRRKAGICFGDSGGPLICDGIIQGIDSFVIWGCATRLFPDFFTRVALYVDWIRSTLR
# Experimental: FIG. 8 is a logarithmic plot of the degradation over time of three polypeptides of the present disclosure, UGP022 (SEQ ID NO: 5), UGP025 (SEQ ID NO: 7) and UGP026 (SEQ ID NO: 8) in the presence of PR3, a protease implicated in the in vivo cleavage of Annexin 1.
# In an attempt to improve the potency and increase the half-life of the UGP022 peptide of the present disclosure (SEQ ID NO: 5), a series of in vitro PR3 and FINE digests were conducted. […] This cleavage site is not believed to have been identified in the literature.
# Degradation tests of three polypeptides of the present disclosure, UGP022 (SEQ ID NO:5), UGP025 (SEQ ID NO:7) and UGP026 (SEQ ID NO:8) in the presence of PR3, a protease implicated in the in vivo cleavage of Annexin 1, indicated better stability for polypeptides with Leucine substitution at position 24 relative to a polypeptide lacking that feature. Position 24 corresponds to position 25 of Annexin 1 because all tested polypeptides lack the methionine at position 1 of natural Annexin. A 47-residue polypeptide outperformed an otherwise identical 49-residue polypeptide. Similar results were obtained in degradation tests in the presence of FINE.
# FIG. 8 is a logarithmic plot of the degradation over time of three polypeptides of the present disclosure, UGP022 (SEQ ID NO:5), UGP025 (SEQ ID NO:7) and UGP026 (SEQ ID NO:8) in the presence of PR3, a protease implicated in the in vivo cleavage of Annexin 1. […] Also, a 47-residue polypeptide amidated at its C-terminus outperformed an otherwise identical 49-residue polypeptide amidated at its C-terminus.
# FPR1 = target: T2, FPR1 (Homo sapiens, UniProt P21462); assay: FPR1 activation (ERK phosphorylation and intracellular calcium fluxes); type: cell-based
# T2 sequence (P21462 1-350): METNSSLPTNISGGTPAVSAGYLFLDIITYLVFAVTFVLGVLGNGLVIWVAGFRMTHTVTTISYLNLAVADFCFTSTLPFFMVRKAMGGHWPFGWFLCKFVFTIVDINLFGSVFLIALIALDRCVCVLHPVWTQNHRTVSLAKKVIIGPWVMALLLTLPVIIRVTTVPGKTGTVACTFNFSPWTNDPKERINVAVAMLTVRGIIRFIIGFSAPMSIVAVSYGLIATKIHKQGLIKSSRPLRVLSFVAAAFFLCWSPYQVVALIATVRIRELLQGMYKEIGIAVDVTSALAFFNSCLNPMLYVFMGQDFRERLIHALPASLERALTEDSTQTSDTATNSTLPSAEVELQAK
# FPR2 = target: T3, FPR2 (Homo sapiens, UniProt P25090); assay: FPR2 activation (ERK phosphorylation and intracellular calcium fluxes); type: cell-based
# T3 sequence (P25090 1-351): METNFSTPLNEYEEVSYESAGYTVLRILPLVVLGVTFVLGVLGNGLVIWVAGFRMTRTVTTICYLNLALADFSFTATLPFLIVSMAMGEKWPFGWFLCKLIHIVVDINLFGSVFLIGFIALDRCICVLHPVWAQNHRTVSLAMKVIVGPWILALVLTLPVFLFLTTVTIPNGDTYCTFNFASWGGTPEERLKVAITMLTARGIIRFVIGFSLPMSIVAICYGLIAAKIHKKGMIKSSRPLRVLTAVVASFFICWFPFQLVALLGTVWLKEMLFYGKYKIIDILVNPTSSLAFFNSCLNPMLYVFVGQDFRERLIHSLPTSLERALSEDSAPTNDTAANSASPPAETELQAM
# [2] = tested on: inflamed microcirculation; assay: Inflamed microcirculation in vivo; design: species or system murine
activation of FPR1 (FPR1),activation of FPR2 (FPR2),Substance,inhibition of leukocyte infiltration/recruitment in air-pouch model [1],tissue protection / reduction of reperfusion injury (infarct size) (reperfusion injury),cleavage sites by PR3 (PR3; in vitro digest),anti-inflammatory properties in the inflamed microcirculation [2],stability / resistance to PR3 degradation (PR3)
could activate both FPR1 and FPR2,could activate both FPR1 and FPR2,"AMVSEFLKQAWFIENEEQEYVQTVKSSKGGPGSAVSPYPTFNPSSDVAA-NH2 [UGP022, ANXA1(2-50)-NH2]",more potent than either the UGP021 peptide; also recorded: the more potent at inhibiting leukocyte recruitment into the inflamed airpouch,potent tissue protective properties; also recorded: reduce the risk of reperfusion injury relative to a vehicle-only control,Ala 10 (Ala11 relative to Annexin 1) and Val 21 (Val22 relative to Annexin 1); also recorded: Val 24 (Val25 relative to Annexin 1),potency equivalent to human recombinant Annexin A1,
,,"AMVSEFLKQAWFIENEEQEYVQTLKSSKGGPGSAVSPYPTFNPSSDVAA-NH2 [UGP026, Leu25-ANXA1(2-50)-NH2]",,affording cardioprotection; also recorded: reduce the risk of reperfusion injury relative to a vehicle-only control,,,more resistant to PR3 and FINE than the UGP022 peptide
,,"AMVSEFLKQAWFIENEEQEYVQTLKSSKGGPGSAVSPYPTFNPSSDV-NH2 [UGP025, Leu25-ANXA1(2-48)-NH2]",,affording cardioprotection; also recorded: reduce the risk of reperfusion injury relative to a vehicle-only control,,,more resistant to PR3 and FINE than the UGP022 peptide
